Reference: the supplement of paper PMC10307832

Columns and labels:
Experiment in all cases: relative viability (nuclei count vs DMSO), 5 days (fraction); higher = more cells survive
CAP-232 + Alpelisib = compound: C[C@H]([C@@H](C(=O)N)NC(=O)[C@@H]1CSSC[C@@H](C(=O)N[C@H](C(=O)N[C@@H](C(=O)N[C@H](C(=O)N1)CCCCN)CC2=CNC3=CC=CC=C32)CC4=CC=C(C=C4)O)NC(=O)[C@@H](CC5=CC=CC=C5)N)O [CAP-232] + Cc1nc(NC(=O)N2CCC[C@H]2C(N)=O)sc1-c1ccnc(C(C)(C)C(F)(F)F)c1 [Alpelisib] (partner 2 µM)
Procedure, shortened: (§1)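 Relative viability equals treated-well nuclei counts divided by vehicle-well nuclei counts. Counts came from 4× images of lung cancer cell lines grown in 1536-well plates for 5 days after pin-tool dosing on the day after seeding. Dosing used one drug alone or a fixed anchor-drug dose plus five library-drug doses (not always all listed) in √10 steps, and values are medians of duplicate plates.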

CAP-232 + Foretinib = compound: C[C@H]([C@@H](C(=O)N)NC(=O)[C@@H]1CSSC[C@@H](C(=O)N[C@H](C(=O)N[C@@H](C(=O)N[C@H](C(=O)N1)CCCCN)CC2=CNC3=CC=CC=C32)CC4=CC=C(C=C4)O)NC(=O)[C@@H](CC5=CC=CC=C5)N)O [CAP-232] + COc1cc2c(Oc3ccc(NC(=O)C4(C(=O)Nc5ccc(F)cc5)CC4)cc3F)ccnc2cc1OCCCN1CCOCC1 [Foretinib] (partner 0.25 µM)
Procedure, shortened: as §1

CAP-232 + OSI-027 = compound: C[C@H]([C@@H](C(=O)N)NC(=O)[C@@H]1CSSC[C@@H](C(=O)N[C@H](C(=O)N[C@@H](C(=O)N[C@H](C(=O)N1)CCCCN)CC2=CNC3=CC=CC=C32)CC4=CC=C(C=C4)O)NC(=O)[C@@H](CC5=CC=CC=C5)N)O [CAP-232] + COc1cccc2cc(-c3nc([C@H]4CC[C@H](C(=O)O)CC4)n4ncnc(N)c34)[nH]c12 [OSI-027] (partner 0.5 µM)
Procedure, shortened: as §1

CAP-232 + Crizotinib = compound: C[C@H]([C@@H](C(=O)N)NC(=O)[C@@H]1CSSC[C@@H](C(=O)N[C@H](C(=O)N[C@@H](C(=O)N[C@H](C(=O)N1)CCCCN)CC2=CNC3=CC=CC=C32)CC4=CC=C(C=C4)O)NC(=O)[C@@H](CC5=CC=CC=C5)N)O [CAP-232] + C[C@@H](Oc1cc(-c2cnn(C3CCNCC3)c2)cnc1N)c1c(Cl)ccc(F)c1Cl [Crizotinib] (partner 1 µM)
Procedure, shortened: as §1

CAP-232 + Phenformin = compound: C[C@H]([C@@H](C(=O)N)NC(=O)[C@@H]1CSSC[C@@H](C(=O)N[C@H](C(=O)N[C@@H](C(=O)N[C@H](C(=O)N1)CCCCN)CC2=CNC3=CC=CC=C32)CC4=CC=C(C=C4)O)NC(=O)[C@@H](CC5=CC=CC=C5)N)O [CAP-232] + N=C(N)NC(=N)NCCc1ccccc1 [Phenformin] (partner 250 µM)
Procedure, shortened: as §1

Cell Line	relative viability (CAP-232 + Alpelisib; first compound 0.4 µM)	relative viability (CAP-232 + Alpelisib; first compound 1.265 µM)	relative viability (CAP-232 + Alpelisib; first compound 4 µM)	relative viability (CAP-232 + Alpelisib; first compound 12.65 µM)	relative viability (CAP-232 + Foretinib; first compound 0.4 µM)	relative viability (CAP-232 + Foretinib; first compound 1.265 µM)	relative viability (CAP-232 + Foretinib; first compound 4 µM)	relative viability (CAP-232 + Foretinib; first compound 12.65 µM)	relative viability (CAP-232 + OSI-027; first compound 0.4 µM)	relative viability (CAP-232 + OSI-027; first compound 1.265 µM)	relative viability (CAP-232 + OSI-027; first compound 4 µM)	relative viability (CAP-232 + OSI-027; first compound 12.65 µM)	relative viability (CAP-232 + Crizotinib; first compound 0.4 µM)	relative viability (CAP-232 + Crizotinib; first compound 1.265 µM)	relative viability (CAP-232 + Crizotinib; first compound 4 µM)	relative viability (CAP-232 + Crizotinib; first compound 12.65 µM)	relative viability (CAP-232 + Phenformin; first compound 0.4 µM)	relative viability (CAP-232 + Phenformin; first compound 1.265 µM)	relative viability (CAP-232 + Phenformin; first compound 4 µM)	relative viability (CAP-232 + Phenformin; first compound 12.65 µM)
NCI-H3122	0.735	0.76	0.838	0.84	0.91	0.97	0.795	1.03	0.629	1.01	1.07	0.474	0.274	0.313	0.308	0.277	0.404	0.388	0.395	0.335
PC-3 [JPC-3]	1.1	1.08	1.03	1.08	1.1	1.02	1.05	0.98	0.853	0.794	0.796	0.73	1.01	1.02	0.966	0.985	0.494	0.461	0.459	0.453
PC-14	1.06	0.911	1.14	0.926	1.06	0.939	1.06	0.86	0.8	0.848	1.08	0.397	1.02	0.861	0.933	0.89	0.577	0.56	0.659	0.386
RERF-LC-KJ	0.951	0.693	0.833	0.816	0.87	0.993	0.951	0.884	0.588	0.533	0.486	0.231	0.944	0.919	0.851	0.829	0.493	0.4	0.388	0.315
SK-LU-1	1	1.11	1.07	0.96	0.759	0.937	0.913	0.652	0.329	0.342	0.308	0.332	0.689	0.988	0.781	0.912	0.503	0.553	0.67	0.482
SK-MES-1	0.997	0.944	1.06	0.938	0.935	1.04	0.95	0.771	0.696	0.557	0.583	0.264	0.965	0.909	0.926	0.931	0.684	0.663	0.693	0.521
SW 1573	0.744	0.861	0.8	0.672	0.873	0.836	0.903	1.03	0.612	0.785	0.678	0.111	0.785	0.803	0.642	0.81	0.337	0.413	0.421	0.163
UMC-11	1.06	1.04	1.16	0.777	1.09	1.1	1.12	0.977	0.474	0.484	0.517	0.39	0.585	0.786	0.681	0.639	0.309	0.28	0.332	0.295
